Like-named read-outs stand apart in the source and are kept apart here. *1 amine or outer side, *2 acyl side, *3 side chain or, on linkers, in order; H or OH if unused. Where a SMILES comes first, the peptide text is derived from it. Bridges are numbered along the chain shown (N, C = ends). Where no end group is shown, it is not given here. [ ]: non-standard residue; d: D form. ξ: configuration not given here. ξTrp(2-yl) = O=C(C(Cc1c([*:3])[nH]c2ccccc12)N[*:1])[*:2]; X1 = CC(O)(CO)CC(N[*:1])C(=O)[*:2]; Hyp = O=C(O)[CH]1C[CH](O)CN1
Columns and labels:
[1] = Solubility / aggregation of pHLIP variants at pH 8
HeLa cells [2] = type: cell-based, human; conditions: 1 uM, pH 6.2, 1.5 h
[3] = type: physicochemical; conditions: absorbance at 300 nm
Method: Peptides were labeled at the C-terminal Cys residues using the membrane-impermeable compound maleimide-PEG2-biotin (Thermo Scientific), which has a long polar spacer arm of 29.1 Å that allows adequate biotin binding to avidin. The synthesis reaction was performed in 10 mM phosphate buffer, pH 7.5 (overnight incubation at 4° C.). Reaction products were purified by HPLC, and the mass of the biotin-labeled peptides checked by MALDI-TOF mass spectrometry. The octanol/water partition coefficient of maleimide-PEG2-biotin was determined experimentally by measuring the absorbance at 300 nm in the aqueous and octanol (previously pre-equilibrated with water) phases after a 2 h vortexing. A log P value of −1.07±0.02 was obtained. […] (Kuyper et al., 2006, J. Am. Chem. Soc. 128(10), 3233-40).

[4] = type: in vitro ADME; conditions: pH 6.2
HeLa cells [5] = system: HeLa cells
JC cells = conditions: pH 6.1
actin filaments = conditions: read-out: Kd, binding to actin filaments; cited from earlier work
physchem [6] = experiment: physchem
tumor = conditions: in vivo
physchem [7] = experiment: physchem; remark: listed apart in the source
[8] = Stopped-flow fluorescence and CD kinetics of insertion/folding and exit/unfolding; type: physicochemical
[9] = Analytical ultracentrifugation, sedimentation velocity; type: physicochemical; conditions: 7 μM, pH 8
HeLa cells [10] = type: cell-based, human
GFP fluorescent tumors = conditions: mouse, in vivo
[11] = mouse, in vivo
[12] = biological target: Rabbit muscle actin, polymerized filamentous actin (F-actin) (rabbit) (UniProt P68135); experiment: fluorescence anisotropy (ex 570 nm / em 610 nm), titration of phallTxR by F-actin; value for unbound tracer
[13] = biological target: Rabbit muscle actin, polymerized filamentous actin (F-actin) (rabbit) (UniProt P68135); experiment: fluorescence anisotropy (ex 570 nm / em 610 nm), separate titration of phallTxR by F-actin without competitor; value for fully bound tracer
[14] = Membrane affinity and insertion kinetics of variants Var1-16; type: physicochemical; conditions: relative to WT pHLIP
HeLa tumors = conditions: mouse, in vivo
[15] = in vivo; cited from earlier work

CC[C@H](C)[C@H](NC(=O)[C@@H]1CCCN1C(=O)[C@H](CC(N)=O)NC(=O)[C@H](CCC(N)=O)NC(=O)[C@H](CCC(=O)O)NC(=O)CNC(=O)CN)C(=O)N[C@@H](Cc1ccc(O)cc1)C(=O)N[C@@H](Cc1c[nH]c2ccccc12)C(=O)N[C@@H](C)C(=O)N[C@@H](CCC(N)=O)C(=O)N[C@@H](Cc1ccc(O)cc1)C(=O)N[C@@H](C)C(=O)N[C@@H](CC(=O)O)C(=O)N[C@@H](Cc1c[nH]c2ccccc12)C(=O)N[C@@H](CC(C)C)C(=O)N[C@@H](Cc1ccccc1)C(=O)N[C@H](C(=O)N[C@H](C(=O)N1CCC[C@H]1C(=O)N[C@@H](CC(C)C)C(=O)N[C@@H](CC(C)C)C(=O)N[C@@H](CC(C)C)C(=O)N[C@@H](CC(C)C)C(=O)N[C@@H](CC(=O)O)C(=O)N[C@@H](CC(C)C)C(=O)N[C@@H](C)C(=O)N[C@@H](CC(C)C)C(=O)N[C@@H](CC(C)C)C(=O)N[C@H](C(=O)N[C@@H](CC(=O)O)C(=O)N[C@@H](C)C(=O)N[C@@H](CC(=O)O)C(=O)N[C@@H](CCC(=O)O)C(=O)NCC(=O)N[C@H](C(=O)N[C@@H](CS)C(=O)NCC(=O)O)[C@@H](C)O)C(C)C)[C@@H](C)O)[C@@H](C)O [R11Q]
Notes: solubility [1]: Has better solubility

CC[C@H](C)[C@@H]1NC(=O)CNC(=O)[C@@H]2Cc3c([nH]c4cc(O)ccc34)[S@+]([O-])C[C@H](NC(=O)CNC1=O)C(=O)N[C@@H](CC(N)=O)C(=O)N1C[C@H](O)C[C@H]1C(=O)N[C@@H]([C@@H](C)[C@@H](O)CO)C(=O)N2 [amanitin, α-amanitin]
cell growth after treatment (ECIS) (HeLa cells [2]): continue to grow

O=C(CCCC[C@@H]1SC[C@@H]2NC(=O)N[C@@H]21)NCCOCCOCCNC(=O)CCN1C(=O)C=CC1=O [maleimide-PEG2-biotin]
log P (octanol/water) [3]: −1.07±0.02

CC[C@H](C)[C@H](NC(=O)[C@@H]1CCCN1C(=O)[C@H](CC(N)=O)NC(=O)[C@H](CCC(N)=O)NC(=O)[C@H](CCC(=O)O)NC(=O)[C@H](C)NC(=O)[C@H](C)NC(C)=O)C(=O)N[C@@H](Cc1ccc(O)cc1)C(=O)N[C@@H](Cc1c[nH]c2ccccc12)C(=O)N[C@@H](C)C(=O)N[C@@H](CCCNC(=N)N)C(=O)N[C@@H](Cc1ccc(O)cc1)C(=O)N[C@@H](C)C(=O)N[C@@H](CC(=O)O)C(=O)N[C@@H](Cc1c[nH]c2ccccc12)C(=O)N[C@@H](CC(C)C)C(=O)N[C@@H](Cc1ccccc1)C(=O)N[C@H](C(=O)N[C@H](C(=O)N1CCC[C@H]1C(=O)N[C@@H](CC(C)C)C(=O)N[C@@H](CC(C)C)C(=O)N[C@@H](CC(C)C)C(=O)N[C@@H](CC(C)C)C(=O)N[C@@H](CC(=O)O)C(=O)N[C@@H](CC(C)C)C(=O)N[C@@H](C)C(=O)N[C@@H](CC(C)C)C(=O)N[C@@H](CC(C)C)C(=O)N[C@H](C(=O)N[C@@H](CC(=O)O)C(=O)N[C@@H](C)C(=O)N[C@@H](CC(=O)O)C(=O)N[C@@H](CCC(=O)O)C(=O)NCC(=O)N[C@H](C(=O)N[C@@H](CCCCNC(=O)c1ccc(-c2c3ccc(N(C)C)cc3[o+]c3cc(N(C)C)ccc23)c(C(=O)[O-])c1)C(=O)N[C@@H](CSSCCC(=O)NC[C@](C)(O)C[C@@H]1NC(=O)[C@@H]2Cc3c([nH]c4ccccc34)SC[C@H](NC(=O)[C@@H]([C@H](C)O)NC(=O)[C@H](C)NC1=O)C(=O)N1C[C@@H](O)C[C@H]1C(=O)N[C@@H](C)C(=O)N2)C(=O)NCC(=O)O)[C@@H](C)O)C(C)C)[C@@H](C)O)[C@@H](C)O [pHLIP-K(rho)C(aph)]
decomposition during cell incubation (HPLC) [4]: no detectable decomposition
effect on cell growth (HeLa cells [5]; pH 7.4): did not have any effect on cell growth
inhibition of JC growth (JC cells): 78%
inhibition of M4A4 proliferation (M4A4 cells; pH 6.2): 92%
multinucleation (HeLa or M4A4 cells): became multinucleated
cytoskeletal immobilization on trypsinization / cytotoxic morphology (HeLa or M4A4 cells; pH 6.1): exhibited a reduced ability to contract

CC1NC(=O)C(CC(C)(O)CO)NC(=O)C2Cc3c([nH]c4ccccc34)SCC(NC(=O)C(C(C)O)NC1=O)C(=O)N1CC(O)CC1C(=O)NC(C)C(=O)N2 (stereo not drawn) [phalloidin] (cyclo([X1]ATC[Hyp]A[ξTrp(2-yl)]); thioether 4-7; configuration not given here)
inhibitory effect on HeLa proliferation (HeLa cells [5]): no inhibitory effect
inhibitory effect on M4A4 proliferation (M4A4 cells): no inhibitory effect
Kd (actin filaments): < 0.04 µM
logP (physchem [6]): -1.5

AAEQNPIYWARYADWLFTTGLLLLDLALLVDADEGT [P20G]
Findings: biodistribution / blood clearance (tumor): Goes the liver
pKa (physchem [7]): ~6.7

H-GGEQNPIYWARYADWLFTTPLLLLDLALLVDADEGT-OH [pHLIP]
interfacial helix formation time [8]: 0.1 s
oligomer share of total population [9]: ~6%
recruitment of anti-DNP antibodies, pH 6.2 versus pH 7.4 (times more) (HeLa cells [10]): not capable of significantly recruiting
inhibitory effect on HeLa proliferation (HeLa cells [5]): no inhibition of proliferation was observed
toxic effects in mice (GFP fluorescent tumors): did not induce any toxic effects
pH range over which titration occurs: ~1 pH unit
adverse effects [11]: did not show any adverse effects

Texas Red-X phalloidin (peptide)
fluorescence anisotropy [12]: 0.04
fluorescence anisotropy [13]: 0.24

WT-reverse (TEDADVLLALDLLLLPTTFLWDAYRAWYPNQECA)
Findings: Inserts into membrane, times faster than WT [14]: Inserts into membrane 10 times

gold nanoparticles
amount of gold, Bladder (HeLa tumors): 0.010 ± 0.094 % of injected dose per gram of tissue
amount of gold, Blood (HeLa tumors): 0.028 ± 0.028 % of injected dose per gram of tissue
amount of gold, Heart (HeLa tumors): 0.075 ± 0.010 % of injected dose per gram of tissue
amount of gold, Intestine (HeLa tumors): 0.034 ± 0.021 % of injected dose per gram of tissue
amount of gold, Kidney (HeLa tumors): 1.561 ± 0.098 % of injected dose per gram of tissue
amount of gold, Liver (HeLa tumors): 0.082 ± 0.082 % of injected dose per gram of tissue
amount of gold, Lung (HeLa tumors): 0.119 ± 0.025 % of injected dose per gram of tissue
amount of gold, Muscle (HeLa tumors): 1.836 ± 0.071 % of injected dose per gram of tissue
amount of gold, Skin (HeLa tumors): 0.129 ± 0.041 % of injected dose per gram of tissue
amount of gold, Spleen (HeLa tumors): 0.097 ± 0.039 % of injected dose per gram of tissue
amount of gold, Stomach (HeLa tumors): 0.012-30.011 % of injected dose per gram of tissue
amount of gold, Bladder (HeLa tumors; iv): 0.050 ± 0.050 % of injected dose per gram of tissue
amount of gold, Blood (HeLa tumors; iv): 0.091 ± 0.020 % of injected dose per gram of tissue
amount of gold, Heart (HeLa tumors; iv): 0.069 ± 0.004 % of injected dose per gram of tissue
amount of gold, Intestine (HeLa tumors; iv): 0.073 ± 0.002 % of injected dose per gram of tissue
amount of gold, Kidney (HeLa tumors; iv): 1.206 ± 0.078 % of injected dose per gram of tissue
amount of gold, Liver (HeLa tumors; iv): 0.392 ± 0.031 % of injected dose per gram of tissue
amount of gold, Lung (HeLa tumors; iv): 0.128 ± 0.000 % of injected dose per gram of tissue
amount of gold, Muscle (HeLa tumors; iv): 0.053 ± 0.005 % of injected dose per gram of tissue
amount of gold, Skin (HeLa tumors; iv): 0.204 ± 0.029 % of injected dose per gram of tissue
amount of gold, Spleen (HeLa tumors; iv): 0.089 ± 0.045 % of injected dose per gram of tissue
amount of gold, Stomach (HeLa tumors; iv): 0.081 ± 0.000 % of injected dose per gram of tissue
LD50 [15]: approximately 3.2 g Au kg^−1

Source: patent US20160256560A1, “Environmentally Sensitive Compositions” (priority 2010, published 2016)
